Measurements as given in patent publication US20100028278A1, “USE OF CHROMAN-4-ONE DERIVATIVES” (Merck Patent Gesellschaft MIT Beschrankter Haftung, priority 2007, published 2010).

Tested on: Normal human adipocytes
Test: Assessment of lipid synthesis in adipocytes in suspension (anti-cellulitis efficacy test)
Type: cell-based
Settings: radioactively labelled acetate (2-C14) into lipids, versus comparative sample
Description: Normal human adipocytes are isolated starting from biopsies (plastic surgery). Immediately after receipt, the samples are incubated for 30 min at 37° C. in the presence of collagenase (supplied by Sigma). The suspension of adipocytes is then rinsed and diluted three-fold in the culture medium, The culture medium is formed, for example, from the following: • 1.87 mg/ml of bicarbonate (supplied by Life Technologies), • 25 IU/ml/25 μg/ml of penicillin/streptomycin (supplied by Life Technologies), • 2 mM of glutamine (supplied by Life Technologies), • 100% (vol./vol.) MEM (supplied by Merck Eurolab) and • 0.5% (wt./vol.) bovine albumin (supplied by Sigma).
The adipocytes in suspension are incubated for 4 h at 37° C. in the presence of various concentrations of a compound of the formula I. […]
After incubation for 4 h, the lipids are extracted by the procedure described by Bligh and Dyer, Can. J. Biochem. Physiol., 37, 922 (1959), evaporation is carried out under nitrogen, and the introduced radioactivity is quantified by liquid scintillation (reference liquid scintillation instrument LKB 1210, supplied by Rackbeta).
Any interaction between the radioactively labelled acetate and a compound of the formula I is evaluated in order to confirm the specificity of the labelling by incubating the highest concentration of the compound of the formula I with acetate alone.

Q: `C/C=C/C/C=C/CCC(=O)[C@H]1O[C@H]1C(N)=O` [Cerulin] was tested. Which “inhibition of the incorporation of acetate” value did it give?
A: Its value is 95%.
